Data set [1] in a line: Solubility of the compound in PBS measured after overnight incubation by LYSA assay. The data set is classed as physicochemical.
Data set [2] in a line: Intrinsic clearance in human liver microsomes at 1 uM preincubated for 10 mins followed by NADPH addition measured over 30 mins by LC-MS/MS analysis. The class given is ADME. Particulars: read-out: CLH.
Data set [3] in a line: Intrinsic clearance in mouse liver microsomes at 1 uM preincubated for 10 mins followed by NADPH addition measured over 30 mins by LC-MS/MS analysis. As to conditions: read-out: CLH. The class given is ADME. (Liver microsomes are a subcellular fraction often used to study metabolism.)
Data set [4] in a line: Plasma clearance in ICR mouse. The class given is ADME, organism-based.
Data set [5] relates to Mus musculus. The data set is described as follows: AUC (0 to infinity) in ICR mouse at 25 mg/kg, iv. The class given is ADME, organism-based, Plasma. Also on record: time infinity, dose 25 mg/kg, route intravenous. Particulars: in vivo.
In data set [6] the test system is Mus musculus. The data set is described as follows: AUC (0 to infinity) in ICR mouse at 50 mg/kg, po. The data set is classed as ADME, organism-based, Plasma. More on the design: time infinity, dose 50 mg/kg, route oral. As to conditions: in vivo.
The nature of data set [7]: Oral bioavailability in ICR mouse at 50 mg/kg. The class given is ADME, organism-based. As to conditions: in vivo.
Data set [8] can be described thus: Half life in ICR mouse at 25 mg/kg, iv. The class given is ADME, organism-based. Particulars: in vivo. Also on record: dose 25 mg/kg, route intravenous.
Data set [9] is described as follows: Cmax in ICR mouse at 50 mg/kg, po. The class given is ADME, organism-based. Also on record: dose 50 mg/kg, route oral. Particulars: in vivo.
The target of the next data set is Histone deacetylase 1 (Homo sapiens, UniProt Q13547).
Chain of Histone deacetylase 1 (Q13547 whole entry): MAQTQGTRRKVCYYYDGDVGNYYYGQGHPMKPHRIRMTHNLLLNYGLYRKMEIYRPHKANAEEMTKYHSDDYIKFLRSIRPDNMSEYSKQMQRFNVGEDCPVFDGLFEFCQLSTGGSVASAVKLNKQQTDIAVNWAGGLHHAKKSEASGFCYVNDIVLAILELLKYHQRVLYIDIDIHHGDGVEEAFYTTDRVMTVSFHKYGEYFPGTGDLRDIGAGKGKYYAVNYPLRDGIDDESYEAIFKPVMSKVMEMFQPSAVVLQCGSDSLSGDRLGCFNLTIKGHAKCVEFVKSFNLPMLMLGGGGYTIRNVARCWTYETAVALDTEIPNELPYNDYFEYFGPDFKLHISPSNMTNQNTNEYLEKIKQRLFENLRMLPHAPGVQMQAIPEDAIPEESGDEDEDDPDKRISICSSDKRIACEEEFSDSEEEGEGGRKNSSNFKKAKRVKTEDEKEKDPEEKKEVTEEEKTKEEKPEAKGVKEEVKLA
The target in data set [10] is T1, Protein deacetylase HDAC6 (Homo sapiens, UniProt Q9UBN7).
T1 sequence (Q9UBN7 whole entry): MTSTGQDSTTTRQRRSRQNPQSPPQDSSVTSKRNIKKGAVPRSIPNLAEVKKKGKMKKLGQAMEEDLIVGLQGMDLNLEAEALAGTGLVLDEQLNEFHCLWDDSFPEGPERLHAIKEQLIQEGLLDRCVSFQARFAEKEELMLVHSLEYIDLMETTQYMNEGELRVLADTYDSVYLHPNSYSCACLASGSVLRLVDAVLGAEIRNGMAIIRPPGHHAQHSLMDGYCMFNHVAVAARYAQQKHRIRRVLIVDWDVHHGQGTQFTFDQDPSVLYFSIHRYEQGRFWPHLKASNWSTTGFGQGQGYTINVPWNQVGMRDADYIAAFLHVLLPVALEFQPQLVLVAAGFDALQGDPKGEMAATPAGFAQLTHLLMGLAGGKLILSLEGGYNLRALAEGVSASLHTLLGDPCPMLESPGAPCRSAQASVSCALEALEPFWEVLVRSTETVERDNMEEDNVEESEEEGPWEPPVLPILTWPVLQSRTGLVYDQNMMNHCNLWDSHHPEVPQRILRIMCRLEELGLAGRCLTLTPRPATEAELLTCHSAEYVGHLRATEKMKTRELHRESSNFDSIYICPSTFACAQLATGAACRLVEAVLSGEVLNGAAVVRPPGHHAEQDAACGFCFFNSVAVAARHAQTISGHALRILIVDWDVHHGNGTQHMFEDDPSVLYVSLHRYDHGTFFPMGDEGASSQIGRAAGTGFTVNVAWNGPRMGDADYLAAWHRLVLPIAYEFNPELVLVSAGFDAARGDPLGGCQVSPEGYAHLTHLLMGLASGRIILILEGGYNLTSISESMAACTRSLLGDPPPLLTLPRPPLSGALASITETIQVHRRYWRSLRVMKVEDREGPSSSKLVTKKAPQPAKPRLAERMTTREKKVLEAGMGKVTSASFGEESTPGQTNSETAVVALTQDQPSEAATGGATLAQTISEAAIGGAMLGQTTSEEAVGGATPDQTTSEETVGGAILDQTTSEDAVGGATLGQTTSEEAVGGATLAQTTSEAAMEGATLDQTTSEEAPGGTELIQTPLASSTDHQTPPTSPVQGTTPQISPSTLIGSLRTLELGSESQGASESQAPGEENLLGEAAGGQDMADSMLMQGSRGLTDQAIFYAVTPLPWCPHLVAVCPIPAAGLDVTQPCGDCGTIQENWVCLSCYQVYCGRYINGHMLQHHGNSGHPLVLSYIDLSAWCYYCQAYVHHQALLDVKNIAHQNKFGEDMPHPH
Description: Inhibition of HDAC6 (unknown origin) using RHKK(Ac)AMC as substrate

The target of another data set is T2, Histone deacetylase 8 (Homo sapiens, UniProt Q9BY41).
T2 sequence (Q9BY41 whole entry): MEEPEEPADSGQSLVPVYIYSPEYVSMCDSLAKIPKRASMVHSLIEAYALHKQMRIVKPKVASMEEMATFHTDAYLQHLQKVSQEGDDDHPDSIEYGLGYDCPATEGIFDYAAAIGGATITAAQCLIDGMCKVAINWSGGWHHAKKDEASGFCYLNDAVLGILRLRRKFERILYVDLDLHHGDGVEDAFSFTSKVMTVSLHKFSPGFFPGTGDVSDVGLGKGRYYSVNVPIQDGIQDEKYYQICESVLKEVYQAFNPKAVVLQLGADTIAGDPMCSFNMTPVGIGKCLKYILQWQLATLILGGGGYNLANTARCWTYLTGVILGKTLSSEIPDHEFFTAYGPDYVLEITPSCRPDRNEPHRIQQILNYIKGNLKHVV

The target of data set [11] is Histone deacetylase 1/2/3/6 (Homo sapiens) (UniProt Q13547+O15379+Q9UBN7+Q92769). Particulars: HeLa, at 10 µM.
Chain of Histone deacetylase 1/2/3/6 (Homo sapiens) (O15379 whole entry, looked up, one chain of several): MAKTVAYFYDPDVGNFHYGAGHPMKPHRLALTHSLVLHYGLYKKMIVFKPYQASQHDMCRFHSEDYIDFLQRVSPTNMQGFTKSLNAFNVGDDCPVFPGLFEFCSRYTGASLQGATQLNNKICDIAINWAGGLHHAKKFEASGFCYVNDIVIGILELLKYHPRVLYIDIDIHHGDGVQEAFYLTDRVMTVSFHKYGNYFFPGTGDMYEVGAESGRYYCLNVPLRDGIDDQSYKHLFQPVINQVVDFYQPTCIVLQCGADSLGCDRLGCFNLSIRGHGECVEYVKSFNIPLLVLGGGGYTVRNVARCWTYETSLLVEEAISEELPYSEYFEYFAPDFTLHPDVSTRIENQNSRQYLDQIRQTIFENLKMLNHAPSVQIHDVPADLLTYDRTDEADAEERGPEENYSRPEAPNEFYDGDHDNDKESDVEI
Chain of Histone deacetylase 1/2/3/6 (Homo sapiens) (Q13547 whole entry, looked up, one chain of several): as the sequence (Q13547 whole entry) above
Chain of Histone deacetylase 1/2/3/6 (Homo sapiens) (Q92769 whole entry, looked up, one chain of several): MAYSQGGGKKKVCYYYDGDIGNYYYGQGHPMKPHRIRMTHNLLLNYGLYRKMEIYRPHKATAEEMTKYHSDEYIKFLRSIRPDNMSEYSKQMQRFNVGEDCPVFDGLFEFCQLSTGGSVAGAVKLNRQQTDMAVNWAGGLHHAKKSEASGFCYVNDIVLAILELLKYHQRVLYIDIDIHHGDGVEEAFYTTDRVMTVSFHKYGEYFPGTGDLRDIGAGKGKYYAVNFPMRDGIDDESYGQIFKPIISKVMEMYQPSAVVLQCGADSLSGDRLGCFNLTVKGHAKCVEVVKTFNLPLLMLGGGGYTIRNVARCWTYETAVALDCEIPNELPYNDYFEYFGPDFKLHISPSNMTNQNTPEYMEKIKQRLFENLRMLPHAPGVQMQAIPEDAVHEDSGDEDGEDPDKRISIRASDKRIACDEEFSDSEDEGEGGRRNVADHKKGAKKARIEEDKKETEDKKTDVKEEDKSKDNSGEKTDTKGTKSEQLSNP
Description: Inhibition of HDAC1/HDAC2/HDAC3 in human HeLa cells assessed as induction of p21 gene expression at 10 uM after 15 hrs by luciferase reporter gene assay relative to HDAC1 inhibitor SNDX-275
Data set [12] concerns Mus musculus. The data set is described as follows: AUC (0 to infinity) in ICR mouse at 10 mg/kg, iv. The class given is ADME, organism-based, Plasma. More on the design: time infinity, dose 10 mg/kg, route intravenous. Particulars: in vivo.
Data set [13] in a line: Half life in ICR mouse at 10 mg/kg, iv. The class given is ADME, organism-based. More on the design: dose 10 mg/kg, route intravenous. Particulars: in vivo.
In data set [14] the test system is Mus musculus. In words: AUC (0 to infinity) in ICR mouse at 100 mg/kg, po. The data set is classed as ADME, organism-based, Plasma. Particulars: in vivo. More on the design: time infinity, dose 100 mg/kg, route oral.
The nature of data set [15]: Oral bioavailability in ICR mouse at 100 mg/kg. The data set is classed as ADME, organism-based. As to conditions: in vivo.
The target in another data set is Cytochrome P450 3A4 (Homo sapiens, UniProt P08684). The data set is described as follows: Inhibition of CYP3A4 in human liver microsomes preincubated for 10 mins followed by NADPH addition measured after 30 mins by LC-MS/MS analysis. The class given is ADME.
Chain of Cytochrome P450 3A4 (P08684 whole entry): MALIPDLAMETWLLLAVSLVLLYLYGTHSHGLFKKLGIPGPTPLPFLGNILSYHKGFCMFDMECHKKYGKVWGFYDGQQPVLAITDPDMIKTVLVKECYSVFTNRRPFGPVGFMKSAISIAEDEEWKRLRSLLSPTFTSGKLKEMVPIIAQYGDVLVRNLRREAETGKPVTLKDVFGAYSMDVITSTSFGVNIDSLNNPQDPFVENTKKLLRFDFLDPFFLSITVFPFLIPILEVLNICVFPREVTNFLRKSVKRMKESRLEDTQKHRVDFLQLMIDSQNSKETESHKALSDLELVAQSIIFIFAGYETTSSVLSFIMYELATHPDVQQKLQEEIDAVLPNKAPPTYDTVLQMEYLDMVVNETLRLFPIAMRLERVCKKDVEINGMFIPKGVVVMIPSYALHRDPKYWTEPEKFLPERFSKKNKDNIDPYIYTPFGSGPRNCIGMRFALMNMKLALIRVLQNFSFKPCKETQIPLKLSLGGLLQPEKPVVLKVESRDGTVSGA
The next data set concerns the target Cytochrome P450 2D6 (Homo sapiens, UniProt P10635). In words: Inhibition of CYP2D6 in human liver microsomes preincubated for 10 mins followed by NADPH addition measured after 30 mins by LC-MS/MS analysis. The data set is classed as ADME.
The target of another data set is Cytochrome P450 2C9 (Homo sapiens, UniProt P11712). In words: Inhibition of CYP2C9 in human liver microsomes preincubated for 10 mins followed by NADPH addition measured after 30 mins by LC-MS/MS analysis. The data set is classed as ADME.
Chain of Cytochrome P450 2C9 (P11712 whole entry): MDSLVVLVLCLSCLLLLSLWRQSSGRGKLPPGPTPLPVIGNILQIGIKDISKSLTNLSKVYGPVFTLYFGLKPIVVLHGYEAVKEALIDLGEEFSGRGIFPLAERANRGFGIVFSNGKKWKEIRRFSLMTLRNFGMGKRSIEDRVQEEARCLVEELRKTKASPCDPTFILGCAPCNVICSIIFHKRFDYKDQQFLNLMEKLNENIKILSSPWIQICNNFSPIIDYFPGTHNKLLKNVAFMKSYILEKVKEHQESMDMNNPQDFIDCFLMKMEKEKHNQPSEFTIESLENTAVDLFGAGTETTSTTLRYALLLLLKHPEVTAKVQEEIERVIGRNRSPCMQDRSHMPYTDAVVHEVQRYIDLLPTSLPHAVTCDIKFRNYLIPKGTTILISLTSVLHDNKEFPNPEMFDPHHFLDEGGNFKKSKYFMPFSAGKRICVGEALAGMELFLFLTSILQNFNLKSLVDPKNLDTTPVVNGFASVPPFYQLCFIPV
A further data set has as its target Cytochrome P450 2C19 (Homo sapiens, UniProt P33261). In words: Inhibition of CYP2C19 in human liver microsomes preincubated for 10 mins followed by NADPH addition measured after 30 mins by LC-MS/MS analysis. The class given is ADME.
The target in another data set is T3, Cytochrome P450 1A2 (Homo sapiens, UniProt P05177).
T3 sequence (P05177 whole entry): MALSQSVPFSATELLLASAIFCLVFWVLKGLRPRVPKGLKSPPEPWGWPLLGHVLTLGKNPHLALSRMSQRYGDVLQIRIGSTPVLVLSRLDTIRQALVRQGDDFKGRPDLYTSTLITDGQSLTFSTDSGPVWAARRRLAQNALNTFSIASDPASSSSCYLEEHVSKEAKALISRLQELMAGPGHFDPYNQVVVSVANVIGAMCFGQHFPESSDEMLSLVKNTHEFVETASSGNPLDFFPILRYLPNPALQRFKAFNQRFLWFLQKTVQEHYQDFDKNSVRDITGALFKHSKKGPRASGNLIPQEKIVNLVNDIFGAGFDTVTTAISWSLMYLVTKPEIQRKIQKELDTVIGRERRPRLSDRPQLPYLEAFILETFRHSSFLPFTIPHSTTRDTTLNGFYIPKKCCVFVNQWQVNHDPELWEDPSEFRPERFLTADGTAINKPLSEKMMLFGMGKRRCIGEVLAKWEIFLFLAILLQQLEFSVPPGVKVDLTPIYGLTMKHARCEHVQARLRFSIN
In words: Inhibition of CYP1A2 in human liver microsomes preincubated for 10 mins followed by NADPH addition measured after 30 mins by LC-MS/MS analysis. The data set is classed as ADME.

A short description of data set [16]: Cmax in ICR mouse at 100 mg/kg, po. More on the design: dose 100 mg/kg, route oral. The data set is classed as ADME, organism-based. Particulars: in vivo.
The target of data set [17] is T1, Protein deacetylase HDAC6. The source holds these as a separate data set.
Description: Inhibition of HDAC6 in human A549 cells assessed as induction of tubulin acetylation after 17 to 18 hrs by ELISA

Values after ≈ are worked out from the molar mass of the structure shown. Active and inactive are the calls of the source.

What is called solubility is the concentration that dissolves in the medium under given conditions. One may read the clearance as the volume of plasma or blood freed of the substance per unit of time. Usually bioavailability stands for dose-corrected exposure relative to a reference, in per cent. A lower bioavailability goes with poor availability. As usually defined, the half-life is the time needed for the level to fall by half in the phase considered. As a reminder, the Cmax is the peak of the concentration-time curve. As a reminder, the IC50 is the midpoint of a concentration-inhibition curve. Higher therefore signals lower potency. By EC50 is commonly meant the concentration that produces a half-maximal response.

Chain of Cytochrome P450 2D6 (P10635 whole entry): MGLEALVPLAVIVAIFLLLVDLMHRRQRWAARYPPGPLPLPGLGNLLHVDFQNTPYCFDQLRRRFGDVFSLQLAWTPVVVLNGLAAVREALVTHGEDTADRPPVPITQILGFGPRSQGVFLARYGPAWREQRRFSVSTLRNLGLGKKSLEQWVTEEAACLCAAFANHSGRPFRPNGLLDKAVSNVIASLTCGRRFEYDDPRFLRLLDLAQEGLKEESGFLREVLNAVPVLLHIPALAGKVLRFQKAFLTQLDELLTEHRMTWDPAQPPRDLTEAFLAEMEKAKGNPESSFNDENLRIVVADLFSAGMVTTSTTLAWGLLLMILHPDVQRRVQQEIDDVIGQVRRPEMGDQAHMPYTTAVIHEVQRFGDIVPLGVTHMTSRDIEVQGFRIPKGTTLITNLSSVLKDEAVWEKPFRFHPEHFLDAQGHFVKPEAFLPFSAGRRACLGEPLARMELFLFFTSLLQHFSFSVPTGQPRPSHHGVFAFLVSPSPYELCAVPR
Chain of Cytochrome P450 2C19 (P33261 whole entry): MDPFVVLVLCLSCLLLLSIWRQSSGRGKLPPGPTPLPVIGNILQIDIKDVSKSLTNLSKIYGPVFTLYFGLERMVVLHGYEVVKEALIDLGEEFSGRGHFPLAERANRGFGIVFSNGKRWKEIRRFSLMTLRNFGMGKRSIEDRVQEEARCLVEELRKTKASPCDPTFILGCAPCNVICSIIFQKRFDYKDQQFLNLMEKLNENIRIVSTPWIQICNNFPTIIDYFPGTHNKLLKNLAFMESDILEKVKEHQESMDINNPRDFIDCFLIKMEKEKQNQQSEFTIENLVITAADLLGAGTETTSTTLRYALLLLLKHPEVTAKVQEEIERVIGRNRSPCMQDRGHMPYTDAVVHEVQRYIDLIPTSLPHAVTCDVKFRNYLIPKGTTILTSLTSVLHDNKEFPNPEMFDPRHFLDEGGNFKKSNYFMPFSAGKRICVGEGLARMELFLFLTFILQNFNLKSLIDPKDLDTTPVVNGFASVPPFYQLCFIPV
Description for Histone deacetylase 8: Inhibition of HDAC8 (unknown origin) using RHK(Ac)K(Ac)AMC as substrate

In data set [1], `O=C(NO)c1ccc(NC2CCN(c3ccccc3)C2=O)cc1` (stereo unspecified) had a solubility of 33 µg/mL (≈ 106 µM). Also, the CLint scaled at 1 µM in data set [2] came out at 4.6 mL/min/kg; in data set [3] it was 26 mL/min/kg. In addition, the clearance in [4] came out at 108 mL/min/kg. Moreover, the AUC was 3850 µg/L/h in the data set with Mus musculus [5] and 125 µg/L/h in the data set on Mus musculus [6]. Besides, the bioavailability in data set [7] is no more than 1%. In [8], this compound showed a half-life of 0.7 h. The concentration in [9] peaked (Cmax) at 34 ng/mL. The IC50 against Histone deacetylase 1 came out at 19500 nM; in [10], 380 nM; against Histone deacetylase 8 it was 210 nM. Besides, the inhibition result in [11] is “inactive”.

`C[C@]1(Nc2ccc(C(=O)NO)cc2)CCN(c2ccc(Cl)cc2)C1=O` yielded a solubility in data set [1] of 22 µg/mL (≈ 61.1 µM). The figures for the CLint scaled at 1 µM in data set [2] and in [3] were 3 mL/min/kg and 38 mL/min/kg, respectively. This compound had a clearance in data set [4] of 87 mL/min/kg. Also, the AUC in the data set with Mus musculus [12] was 1900 µg/L/h; with Mus musculus [14] it was 10500 µg/L/h. In addition, the half-life in data set [13] was 2.1 h. Further, in data set [15], the bioavailability came to 55%. The IC50 is greater than 50000 nM against Cytochrome P450 3A4; greater than 50000 nM on Cytochrome P450 2D6; greater than 50000 nM against Cytochrome P450 2C9; greater than 50000 nM against Cytochrome P450 2C19; greater than 50000 nM at Cytochrome P450 1A2; 74100 nM at Histone deacetylase 1. The IC50 in data set [10] was determined as 17 nM; at Histone deacetylase 8, 180 nM. In data set [16], this compound returned a Cmax of 626 ng/mL. Also, in data set [17], it took 300 nM to reach a half-maximal effect (EC50).

These data come from ChEMBL document CHEMBL3414430 (J Med Chem, 2015).
